These results are taken from article PMC12526004, “Tiliroside Suppresses Uric Acid Production in Hepatocytes and Attenuates Purine-Induced Hyperuricemia in Male ICR Mice” (Molecules, 2025).

pIC50: −log10 of the molar value.

The subject of data set [1] is XO. The following applies: read-out: IC50, XO inhibition (previous report); cited from earlier work.
On the set-up of data set [2]: method as in PMID 39830960. The following applies: cited from earlier work.
Data set [3] has as its target xanthine oxidase (bovine milk-derived) (Bos taurus, UniProt P80457). Briefly: XO inhibition assay in vitro (UV absorbance at 295 nm). The data set is classed as biochemical. Conditions: xanthine substrate, 37 °C, mean of three independent experiments, read-out: IC50, direct XO inhibitory activity.
Description: Prior to the assay, the compounds were freshly dissolved in a mixture of 30% dimethyl sulfoxide (DMSO; FUJIFILM Wako) and 70% phosphate buffer (100 mM, pH 7.5) to prepare test solutions at final concentrations ranging from 0 to 100 µM. In each well of a 96-well microplate, 50 µL of the test solution was mixed with 60 µL of buffer and 30 µL of xanthine oxidase (7.8 mU/mL, bovine milk-derived; Sigma-Aldrich). After preincubation at 37 °C for 10 min, the reaction was initiated by adding 60 µL of xanthine substrate (150 µM; FUJIFILM Wako). Absorbance at 295 nm was monitored for 30 min at 37 °C using a Spark 10 M microplate reader (Tecan Group Ltd., Männedorf, Switzerland). XO inhibitory activity was expressed as percentage inhibition, calculated using the formula Inhibition (%) = 100 × [1 − (B/A)], where A and B represent the absorbance increase in the absence and presence of the test compound, respectively. All measurements were performed in triplicate.
All experimental data are presented as mean ± SEM. […] Data from the in vitro XO inhibition assay are shown as mean values from three independent experiments. IC50 values were calculated by nonlinear regression analysis using dose–response curves generated from at least six concentrations of each compound. All statistical analyses were performed using GraphPad Prism version 10 (GraphPad Software, San Diego, CA, USA).

Sequence of xanthine oxidase (bovine milk-derived) (P80457 whole entry): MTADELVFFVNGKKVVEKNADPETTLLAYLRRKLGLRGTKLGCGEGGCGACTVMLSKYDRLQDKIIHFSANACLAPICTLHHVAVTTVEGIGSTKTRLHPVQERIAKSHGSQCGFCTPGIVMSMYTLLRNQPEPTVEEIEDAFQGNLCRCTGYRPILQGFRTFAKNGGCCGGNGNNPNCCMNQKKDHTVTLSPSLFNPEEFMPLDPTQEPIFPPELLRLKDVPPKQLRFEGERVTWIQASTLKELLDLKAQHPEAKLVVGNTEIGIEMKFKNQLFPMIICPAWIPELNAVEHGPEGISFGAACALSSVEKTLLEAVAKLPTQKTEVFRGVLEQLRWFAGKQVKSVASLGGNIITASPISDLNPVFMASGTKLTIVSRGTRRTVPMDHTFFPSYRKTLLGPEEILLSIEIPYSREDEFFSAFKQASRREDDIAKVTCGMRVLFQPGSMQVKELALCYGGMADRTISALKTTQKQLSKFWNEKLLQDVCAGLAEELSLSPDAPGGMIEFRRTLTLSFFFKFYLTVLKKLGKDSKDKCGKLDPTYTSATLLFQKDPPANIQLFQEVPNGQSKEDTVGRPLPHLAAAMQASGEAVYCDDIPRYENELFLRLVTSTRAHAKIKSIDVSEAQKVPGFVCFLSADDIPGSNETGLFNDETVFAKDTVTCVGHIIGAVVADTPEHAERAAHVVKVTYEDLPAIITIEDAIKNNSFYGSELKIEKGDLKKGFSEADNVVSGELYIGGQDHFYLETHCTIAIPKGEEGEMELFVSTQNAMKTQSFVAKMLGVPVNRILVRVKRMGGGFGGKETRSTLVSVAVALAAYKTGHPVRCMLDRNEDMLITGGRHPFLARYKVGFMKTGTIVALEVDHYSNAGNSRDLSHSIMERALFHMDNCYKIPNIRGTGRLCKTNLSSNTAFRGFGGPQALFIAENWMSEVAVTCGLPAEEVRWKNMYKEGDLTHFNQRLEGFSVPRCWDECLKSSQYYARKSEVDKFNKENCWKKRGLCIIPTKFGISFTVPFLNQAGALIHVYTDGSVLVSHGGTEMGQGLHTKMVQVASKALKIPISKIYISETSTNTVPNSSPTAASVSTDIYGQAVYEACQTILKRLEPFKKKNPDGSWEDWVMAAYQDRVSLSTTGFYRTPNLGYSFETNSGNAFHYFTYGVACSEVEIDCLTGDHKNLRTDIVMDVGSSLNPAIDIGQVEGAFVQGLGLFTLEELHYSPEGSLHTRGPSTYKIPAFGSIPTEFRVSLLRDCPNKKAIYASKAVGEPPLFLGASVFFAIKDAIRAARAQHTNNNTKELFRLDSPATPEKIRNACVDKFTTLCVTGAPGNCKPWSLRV

As to `O=C(/C=C/c1ccc(O)cc1)OC[C@H]1O[C@@H](Oc2c(-c3ccc(O)cc3)oc3cc(O)cc(O)c3c2=O)[C@H](O)[C@@H](O)[C@@H]1O` [Tiliroside, kaempferol-3-O-(6′′-p-coumaroyl)-glucoside], the pIC50 in data set [1] and in data set [3] was below 4.00 in each case. Moreover, in data set [2], the toxicity and mutagenicity result is “non-toxic and non-mutagenic”.
